From PMC10095864, “Targeting HIV-1 Reverse Transcriptase Using a Fragment-Based Approach” (Molecules, 2023)
Like-named read-outs stand apart in the source and are kept apart here.

Experiments:
recombinant WT HIV-1 RT = target: T1, recombinant WT HIV-1 RT (Human immunodeficiency virus type 1 group M subtype B, UniProt P03367); experiment: biochemical; settings: for IC50: RT Inhibition—IC50 ± SEM, WT RT DDDP activity; for Ligand efficiency (LE): binding to WT RT, LE = −1.4(logIC50)/N; for fold improvement on parent compound B-1: IC50 vs B-1 IC50 >1000 μM in the radioactive RT assay
T1 construct: The p66/p51 HIV-1 RT heterodimer engineered with a N-terminal histidine tag; His tag (histidine tag) (N); made in house; host or cells: Escherichia coli strain M15 (vector pRT6H-PR)
Protocol: (§1) The inhibitory activity of all compounds was evaluated in vitro in assays that measure the DNA-dependent DNA polymerase (DDDP) activity of HIV-1 RT. Compounds were tested against recombinant WT and drug-resistant HIV-1 RT mutants (K103N, Y181C or K103N/Y181C). […] The IC50 value of nevirapine was determined in parallel to control for the performance of the assay. […] These RT mutations either reduce the rate of entry of NNRTIs to the binding pocket (K103N) or remove aromatic interactions that favor binding (Y181C). Initially, compound IC50 values were determined in an assay that quantifies DDDP activity mediated by HIV-1 RT using a radiolabeled ^33PdTTP substrate and more recently using a nonradioactive PicoGreen-based spectrophotometric assay.
(§2) Recombinant HIV-1 RT: The p66/p51 HIV-1 RT heterodimer engineered with a N-terminal histidine tag was expressed from the pRT6H-PR vector (provided by Nicolas Sluis-Cremer) which is based on pRT6H-PROT [37], except that the RT coding region is derived from the infectious molecular clone xxLAI [38]. This xxLAI clone contains the HIV-1LAI backbone and is engineered with silent mutations introducing Xma I and Xba I sites in the RT coding region at nucleotide positions 40–45 and 1470 to 1475, respectively. pRT6H-PR expressing the NNRTI drug-resistant mutations K103N, Y181C and K103N/Y181C were generated by subcloning Xma I/Xba I fragments in xxLAI harboring the desired NNRTI mutations (Giacobbi NS and Sluis-Cremer 2017 AAC) into the corresponding restriction sites in the RT coding region of p6HRT-PR. RT was expressed in Escherichia coli strain M15 and purified using Ni-NTA chromatography as previously described. RT concentrations were determined spectrophotometrically at 280 nm using an extinction coefficient (e280) of 260, 450 M^−1 cm^−1.
(§3) Nevirapine was included in assays as a positive control for inhibiting RT polymerase activity. The DDDP assay was performed by first adding 25 ng of HIV-1 RT to test compound in 96-well plates followed by initiating RT polymerase activity by adding 200 ng of activated calf thymus (ACT) DNA (Sigma Aldrich), 0.2 µCi ^33P-α-dTTP (Perkin Elmer), 50 mM Tris-HCl pH 7.8 50 mM KCl, […], 50 µM dNTP mix (Bioline), 0.1 mg/mL bovine serum albumin (New England Biolabs), 0.01% IGEPAL (Sigma) and 1 mM dithiothreitol. Reactions contained 2.5% dimethyl sulfoxide (DMSO). Following incubation at 37 °C for 10 min, samples from duplicate wells were applied to Whatman DE81 ion-exchange paper (GE Healthcare); dried membranes were washed in 2X saline-sodium citrate (SSC) buffer; and incorporated counts were quantified using an FLP-2000 phosphorimager (Fujifilm) or Typhoon Trio Phosphorimager (GE Healthcare) as published. Dose–response curves were generated using PRISM GraphPad version 8 by plotting the log transformed drug concentrations against percentage inhibition of DDDP activity compared to the no drug control using non-linear regression analysis.
(§4) Non-radioactive DDDP Assay: DDDP assays were also performed using a PicoGreen based spectrophotometric assay to detect double-stranded DNA synthesized by recombinant HIV-1 RT [15]. Assays were performed as described for the […] DDDP assay except that instead of ACT, the reaction contained 40 nM of a template/primer comprising a 200 nt DNA template (5′-[…] […]-3′) annealed to a 18 nucleotide DNA primer (5′-[…]-3′), 50 mM Tris-HCl pH 7.8, 50 mM KCl, 10 mM MgCl2 and 50 µM dNTP mix.

[1] = target: T2, His-tagged HIV-1 RT K103N (Human immunodeficiency virus type 1 group M subtype B, UniProt P03367, K702N); experiment: Surface plasmon resonance, K103N RT; settings: ± standard error of dose–response fit, n = 1; NB = no binding observed; read-out: SPR—KD, K103N
T2 construct: The p66/p51 HIV-1 RT heterodimer engineered with a N-terminal histidine tag; His tag (histidine tag) (N); made in house; host or cells: Escherichia coli strain M15 (vector pRT6H-PR)
Protocol: (§5) Compound binding to recombinant HIV-1 RT was measured by surface plasmon resonance (SPR). SPR is an optical biosensor detection method that involves passing an analyte (often a fragment) in a buffer solution over a gold surface chip with an immobilized protein (RT enzyme) and detecting the change in plasmon resonance angle which is dependent on the refractive index of the medium near the surface. As compounds bind to the target protein, the refractive index changes proportionally to the extent of binding. This can then be used to measure the association and dissociation kinetics of binding as well as the compound’s affinity for binding.
(§6) SPR assays were performed on a Biacore S200 (GE Healthcare). His-tagged RT (WT, K103N, Y181C or K103N/Y181C) was immobilized on the surface of a Biacore compatible NIHC 1500M (Xantec) chip according to manufacturer’s instructions. Following 3 injections 300 s each of 0.5 M EDTA, the chip surface was activated with a 120 s injection of 5 mM NiCl2 followed by a 2100 s injection of 130 nM RT. The final immobilization level of RT was typically 14,000–27,000 RU. SPR experiments were carried out at 25 °C using a flow rate of 50 µL/min in running buffer. The running buffer was 1.053 × (HBS pH 7.4 + 50 µM EDTA + 0.005% Tween-20). Compounds were provided as 200 mM stocks and diluted in running buffer to obtain the concentrations required for dose-response studies (0, 6.25, 12.5, 25, 50, 100 and 200 µM). Raw sensorgram data were analyzed using Biacore S200 Evaluation Software. Dose-response determinations were evaluated using a 1:1 binding model. KD values were determined by Biacore S200 Evaluation Software Version 1.0. assuming 1:1 binding. For compounds approaching saturation, Rmax was floated. For compounds with insufficient curvature, Rmax was fixed based on a control. Errors were determined as the standard error in the dose-response fit, as calculated by Biacore S200 Evaluation Software.

His-tagged HIV-1 RT WT = target: T3, His-tagged HIV-1 RT WT (Human immunodeficiency virus type 1 group M subtype B, UniProt P03367); experiment: Surface plasmon resonance, WT RT; format: binding
T3 construct: The p66/p51 HIV-1 RT heterodimer engineered with a N-terminal histidine tag; His tag (histidine tag) (N); made in house; host or cells: Escherichia coli strain M15 (vector pRT6H-PR)
Protocol: as §5, §6

HIV-1 RT Y181C mutant = target: T4, HIV-1 RT Y181C mutant (Human immunodeficiency virus type 1 group M subtype B, UniProt P03367, Y780C); experiment: DDDP activity assay, Y181C RT mutant; format: biochemical; settings: PicoGreen or 33P radiolabeled assay, n ≥ 2, read-out: RT Inhibition—IC50 ± SEM, Y181C
T4 construct: The p66/p51 HIV-1 RT heterodimer engineered with a N-terminal histidine tag; His tag (histidine tag) (N); made in house; host or cells: Escherichia coli strain M15 (vector pRT6H-PR)
Protocol: as §1
Recombinant HIV-1 RT: The p66/p51 HIV-1 RT heterodimer engineered with a N-terminal histidine tag was expressed from the pRT6H-PR vector (provided by Nicolas Sluis-Cremer) which is based on pRT6H-PROT [37], except that the RT coding region is derived from the infectious molecular clone xxLAI [38]. […] RT concentrations were determined spectrophotometrically at 280 nm using an extinction coefficient (e280) of 260, 450 M^−1 cm^−1.
Nevirapine was included in assays as a positive control for inhibiting RT polymerase activity. […] Following incubation at 37 °C for 10 min, samples from duplicate wells were applied to Whatman DE81 ion-exchange paper (GE Healthcare); dried membranes were washed in 2X saline-sodium citrate (SSC) buffer; and incorporated counts were quantified using an FLP-2000 phosphorimager (Fujifilm) or Typhoon Trio Phosphorimager (GE Healthcare) as published. […]

[2] = target: T5, HIV-1 RT K103N/Y181C mutant (Human immunodeficiency virus type 1 group M subtype B, UniProt P03367, K702N/Y780C); experiment: DDDP activity assay, K103N/Y181C RT mutant; format: biochemical
T5 construct: The p66/p51 HIV-1 RT heterodimer engineered with a N-terminal histidine tag; His tag (histidine tag) (N); made in house; host or cells: Escherichia coli strain M15 (vector pRT6H-PR)
Protocol: as §1, §2, §3, §4

[3] = WT (PicoGreen assay), nonradioactive PicoGreen assay
[4] = WT, PicoGreen or 33P radiolabeled assay, value not marked as PicoGreen, n ≥ 2
[5] = read-out: SPR—KD, WT, ± standard error of dose–response fit, n = 1, NB = no binding observed

SMILES	IC50 (recombinant WT HIV-1 RT; [3]) [µM]	Ligand efficiency (LE) (recombinant WT HIV-1 RT) [kcal/mol/HA]	IC50 (recombinant WT HIV-1 RT; [4]) [µM]	further results
CCOC(=O)c1cnn2cc(OC)cc(Br)c12 [compound 10, Ethyl 4-Bromo-6-methoxypyrazolo[1,5-a]pyridine-3-carboxylate]	315 ± 19	0.29	–	Kd [1]: 757 ± 81 µM; Kd (His-tagged HIV-1 RT WT): 1570 ± 105 µM
CCOC(=O)c1cnn2c(C)cccc12 [compound 5, Ethyl 7-Methylpyrazolo[1,5-a]pyridine-3-carboxylate]	–	0.31	470 ± 95	IC50 (HIV-1 RT Y181C mutant): > 333 µM; Kd (His-tagged HIV-1 RT WT; [5]): > 200 µM
CCOC(=O)c1cnn2cc(Br)cc(OC)c12 [compound 13, Ethyl 6-Bromo-4-methoxypyrazolo[1,5-a]pyridine-3-carboxylate]	–	–	> 1000	–
O=C(NCCc1ccc(O)cc1)c1cnn2cccc(Br)c12 [compound 22, 4-Bromo-N-(4-hydroxyphenethyl)pyrazolo[1,5-a]pyridine-3-carboxamide]	111	–	–	–
CCOC(=O)c1cnn2ccc(C(=O)OC)cc12 [compound 15, 3-Ethyl 5-Methylpyrazolo[1,5-a]pyridine-3,5-dicarboxylate]	–	–	> 1000	–
C#Cc1cccn2ncc(C(=O)OCC)c12 [compound 29, Ethyl 4-ethynylpyrazolo[1,5-a]pyridine-3-carboxylate]	–	0.40	27 ± 26	fold improvement on parent compound B-1 (recombinant WT HIV-1 RT): > 20 fold; Kd (His-tagged HIV-1 RT WT): 395 ± 35 µM; IC50 [2]: 43 ± 14 µM
O=C(O)c1cnn2cccc(Br)c12 [compound 17, 4-Bromopyrazolo[1,5-a]pyridine-3-carboxylic Acid]	–	–	> 1000	Kd (His-tagged HIV-1 RT WT; [5]): > 200 µM
CCOC(=O)c1cnn2c(C)ccc(Cl)c12 [compound 12, Ethyl 4-Chloro-7-methylpyrazolo[1,5-a]pyridine-3-carboxylate]	> 1000	–	–	–
CCCC#Cc1cccn2ncc(C(=O)OCC)c12 [compound 28, Ethyl 4-(pent-1-yn-1-yl)pyrazolo[1,5-a]pyridine-3-carboxylate]	–	0.32	53 ± 4	fold improvement on parent compound B-1 (recombinant WT HIV-1 RT): > 20 fold; Kd (His-tagged HIV-1 RT WT): 275 ± 9 µM; IC50 [2]: 105 ± 6 µM
CCOC(=O)c1cnn2ccc(NC(=O)OC(C)(C)C)cc12 [compound 16, Ethyl 5-((Tert-butoxycarbonyl)amino)pyrazolo[1,5-a]pyridine-3-carboxylate]	–	–	> 1000	–
COC(=O)c1cnn2cccc(Br)c12 [compound 18, Methyl 4-Bromopyrazolo[1,5-a]pyridine-3-carboxylate]	> 1000	–	–	–
CCNC(=O)c1cnn2cccc(Br)c12 [compound 20, 4-Bromo-N-ethylpyrazolo[1,5-a]pyridine-3-carboxamide]	–	–	> 1000	–
